Results taken from patent US7759459B2, “Fluorescent assays for protein kinases” (Albert Einstein College of Medicine of Yeshiva University, priority 2003, dated 2010).
Values belong to the compound of their own block, whether it stands above or below them.

System: protein kinase C
Assay: Screen of fluorophore-peptide library for fluorescence change in the presence of PKC and ATP
Type: biochemical
Conditions: Table 3 library
Experimental: Fluorescent PKC assay-Fluorescence assays were performed in triplicate at 30° C. and initiated by addition of ATP to a 100 μL cuvette containing a 50 μL solution of PKC and peptide substrate 2. Final conditions: 62.5 mM HEPES pH 7.4, 3 mM MgCl2, 0.3 mM CaCl2, 0.1 mM EGTA, 1 mM DTT, 0.5 μg/mL phosphatidylserine, 0.1 μg/mL diacylglycerol, 1 mM ATP, and 13 nM PKC. After the addition of ATP, the solution was gently mixed and the time-dependent change in fluorescent intensity (excitation: 520 nm, emission: […]) continuously monitored with a Photon Technology QM-1 spectrofluorimeter.
The peptide H2N-Ser-Phe-Arg-Arg-Arg-Arg-Lys-amide (1) (SEQ ID NO:2) was prepared using an Fmoc-based protocol, spatially segregated, and the free N-terminal amine subsequently modified with an array of fluorophore-containing carboxylic acids (I), aromatic aldehydes (II), and electron deficient aryl halides (III). […] This spatially segregated fluorophore-substituted peptide-based library contains a total of 415 distinct chemical entities (Table 3) and was screened for changes in fluorescence intensity in the presence of PKC and ATP under activating conditions. […] The obvious explanation is that phosphorylation of the peptide fails to induce the desired change in photophysical properties of the appended fluorophore. However, it is also possible that introduction of fluorophores, at various sites along the peptide framework, interferes with PKC-catalyzed phosphorylation. The latter possibility is unlikely, particularly for simple N-monosubstituted peptides, since PKC will phosphorylate peptides containing a wide variety of structurally diverse functionality attached at and/or near the phosphorylatable serine moiety.^24 Nevertheless, a few representative members of the library were evaluated in depth (Table 1). […]. One explanation for the poor fluorescence response of these particular peptides to PKC/ATP could be that these peptides serve as poor PKC substrates. This possibility was addressed by obtaining the PKCα-catalyzed Km and Vmax values using the [γ-^32P]ATP radioactive method.^25 As is clear from Table 1, all five peptides are reasonably effective substrates for PKCα.
Table 3. Structures of 415 compounds tested. The % change observed in fluorescence intensity upon phosphorylation of the compound by protein kinase C is shown in the right column. […] The compound labeled as compound 21 in Table 3 is the same as compound 2 in Example I, which is also shown in Scheme 2.

SMILES: N=C(N)NC(NC(=O)C(NC(=N)N)NC(=O)C(NC(=N)N)NC(=O)C(NC(=N)N)NC(=O)C(NC(=O)C(O)/N=C/c1cc([N+](=O)[O-])cc([N+](=O)[O-])c1O)c1ccccc1)C(=O)NC(N)C(N)=O (stereo not shown) [Compound 55]
- % change observed in fluorescence intensity upon phosphorylation of the compound by protein kinase C: <10%

SMILES: N=C(N)NC(NC(=O)C(NC(=N)N)NC(=O)C(NC(=N)N)NC(=O)C(NC(=N)N)NC(=O)C(NC(=O)C(O)Nc1ccc(N)cc1)c1ccccc1)C(=O)NC(N)C(N)=O (stereo not shown) [Compound 76]
- % change observed in fluorescence intensity upon phosphorylation of the compound by protein kinase C: <10%

SMILES: N=C(N)NC(NC(=O)C(NC(=N)N)NC(=O)C(NC(=N)N)NC(=O)C(NC(=N)N)NC(=O)C(NC(=O)C(O)N=C1N=c2c(c3ccccc3c3ccccc23)=N1)c1ccccc1)C(=O)NC(N)C(N)=O (stereo not shown) [Compound 77]
- % change observed in fluorescence intensity upon phosphorylation of the compound by protein kinase C: <10%

SMILES: CCCCCC(=O)NCCCCC(CNS(=O)(=O)c1cccc2c(N(C)C)cccc12)NC(O)C(=O)NC(C(=O)NC(NC(=N)N)C(=O)NC(NC(=N)N)C(=O)NC(NC(=N)N)C(=O)NC(NC(=N)N)C(=O)NC(N)C(N)=O)c1ccccc1 (stereo not shown) [Compound 81]
- % change observed in fluorescence intensity upon phosphorylation of the compound by protein kinase C: <10%

SMILES: CCCCCCCCCC(=O)NCCCCC(CNS(=O)(=O)c1cccc2c(N(C)C)cccc12)NC(O)C(=O)NC(C(=O)NC(NC(=N)N)C(=O)NC(NC(=N)N)C(=O)NC(NC(=N)N)C(=O)NC(NC(=N)N)C(=O)NC(N)C(N)=O)c1ccccc1 (stereo not shown) [Compound 82]
- % change observed in fluorescence intensity upon phosphorylation of the compound by protein kinase C: <10%

SMILES: N#CC1=c2cc3ccccc3cc2=CC1C(=N)NC(O)C(=O)NC(C(=O)NC(NC(=N)N)C(=O)NC(NC(=N)N)C(=O)NC(NC(=N)N)C(=O)NC(NC(=N)N)C(=O)NC(N)C(N)=O)c1ccccc1 (stereo not shown) [Compound 86]
- % change observed in fluorescence intensity upon phosphorylation of the compound by protein kinase C: <10%

SMILES: N=C(N)NC(NC(=O)C(NC(=N)N)NC(=O)C(NC(=N)N)NC(=O)C(NC(=N)N)NC(=O)C(NC(=O)C(O)NC(=N)Nc1ccc(NOO)c2nonc12)c1ccccc1)C(=O)NC(N)C(N)=O (stereo not shown) [Compound 87]
- % change observed in fluorescence intensity upon phosphorylation of the compound by protein kinase C: <10%

SMILES: N=C(N)NC(NC(=O)C(NC(=N)N)NC(=O)C(NC(=N)N)NC(=O)C(NC(=N)N)NC(=O)C(NC(=O)C(O)NC(=O)C(CO)C1C=c2cc3ccccc3cc2=C1NN)c1ccccc1)C(=O)NC(N)C(N)=O (stereo not shown) [Compound 88]
- % change observed in fluorescence intensity upon phosphorylation of the compound by protein kinase C: <10%

Now from value to compound:

- % change observed in fluorescence intensity upon phosphorylation of the compound by protein kinase C: <10%
SMILES: N=C(N)NC(NC(=O)C(NC(=N)N)NC(=O)C(NC(=N)N)NC(=O)C(NC(=N)N)NC(=O)C(NC(=O)c1ccc2c3c4c(ccc13)C=CCC4=CC2)NC(=O)C(O)Nc1ccc([N+](=O)[O-])c2nonc12)C(N)=O (stereo not shown) [Compound 73]

- % change observed in fluorescence intensity upon phosphorylation of the compound by protein kinase C: <10%
SMILES: N=C(N)NC(NC(=O)C(NC(=N)N)NC(=O)C(NC(=N)N)NC(=O)C(NC(=N)N)NC(=O)C(NC(=O)Cc1cc(=O)oc2cc(O)ccc12)NC(=O)C(O)Nc1ccc([N+](=O)[O-])c2nonc12)C(N)=O (stereo not shown) [Compound 75]

- % change observed in fluorescence intensity upon phosphorylation of the compound by protein kinase C: <10%
SMILES: N=C(N)NC(NC(=O)C(NC(=N)N)NC(=O)C(NC(=N)N)NC(=O)C(NC(=N)N)NC(=O)C(NC(=O)C(O)N1C=C(c2ccccc2)C(=O)C1(O)c1ccccc1C(=O)O)c1ccccc1)C(=O)NC(N)C(N)=O (stereo not shown) [Compound 78]

- % change observed in fluorescence intensity upon phosphorylation of the compound by protein kinase C: <10%
SMILES: CN(C)c1cccc2c(S(=O)(=O)NC(=N)NC(O)C(=O)NC(C(=O)NC(NC(=N)N)C(=O)NC(NC(=N)N)C(=O)NC(NC(=N)N)C(=O)NC(NC(=N)N)C(=O)NC(N)C(N)=O)c3ccccc3)cccc12 (stereo not shown) [Compound 85]

- % change observed in fluorescence intensity upon phosphorylation of the compound by protein kinase C: <10%
SMILES: N=C(N)NC1=c2cc3ccccc3cc2=CC1C(CO)C(=O)NC(O)C(=O)NC(C(=O)NC(NC(=N)N)C(=O)NC(NC(=N)N)C(=O)NC(NC(=N)N)C(=O)NC(NC(=N)N)C(=O)NC(N)C(N)=O)c1ccccc1 (stereo not shown) [Compound 89]
